This is an account of results in ChEMBL document CHEMBL1144518, “1-Methylpyridinium-4-(4-phenylmethanethiosulfonate) iodide, MTS-MPP+, a novel scanning cysteine accessibility method (SCAM) reagent for monoamine transporter studies” (Bioorg Med Chem, 2007).

Activity calls are given as the source filed them. The calls are words filed in the database; no cut-off is given here.

Assay [1] deals with Sodium-dependent serotonin transporter (Homo sapiens, UniProt P31645, C109A). Briefly: Inhibition of [3H]5-HT uptake at human SERT C109A mutant transfected in HEK cells. It counts as cell-based, HEK293.
Assay [2] relates to Sodium-dependent serotonin transporter (Homo sapiens), P31645 [C109A]. The assay can be described thus: Activation of inward current at human SERT C109A mutant expressed in Xenopus laevis oocytes. The format is cell-based. As to conditions: Oocyte.
Assay [3] shares this test system. The assay can be described thus: Blockade of leak current of human SERT C109A mutant expressed in Xenopus laevis oocytes assessed as outward current at 30 uM. It counts as cell-based. Particulars: Oocyte.
Assay [4] deals with Sodium-dependent serotonin transporter (Homo sapiens, UniProt P31645, G498C). The assay can be described thus: Decrease in [3H]5-HT uptake at human SERT G498C mutant transfected in HEK293 cells. It counts as cell-based.

As usually defined, the Ki is a measure of affinity in units of concentration, obtained from inhibition or displacement. High values mean a looser hold on the target, low ones a stronger hold on the target. In assay [1], `C[n+]1ccc(-c2ccccc2)cc1` displayed a Ki of 48 µM.
Usually EC50 stands for the midpoint of the concentration-response curve. A high value points to weaker potency. Regarding `C[n+]1ccc(-c2ccc(SS(C)(=O)=O)cc2)cc1`, the result in assay [2] was inactive. Besides, the outcome in assay [3] was Active. For the same compound, in assay [4], a half-maximal effect (EC50) was put at 3.98 µM. In assay [1], this compound showed a Ki of 1300 µM.
Turning to `C[N+](C)(C)CCSS(C)(=O)=O`, the midpoint of the response in assay [4], the EC50, lay at 3.16 µM.
